Experimental data taken from patent US11753433B2, “Methods of synthesizing substituted purine compounds” (Epizyme, Inc., priority 2013, dated 2023).

Legend:
[1] = Dynamic vapor sorption (DVS) hygroscopicity; format: physicochemical; settings: at 80% RH, 25° C.
Protocol: (peak temperature) which is accompanied by 5.9 wt % weight loss up to ˜150° C. in the TGA curve (FIG. 3). […] A solid is considered moderately hygroscopic when water uptake at 25° C./80% RH is between 2-15 wt % based on criteria of European Pharmacopeia. […] Form B of EP-1 trihydrate (x is 3) is a trihydrate as confirmed by single crystal analysis. The experimental XRPD pattern of Form B matches well with the simulated one from single crystal data (FIG. 6). This was also confirmed by DSC and TGA data (FIG. 7 and FIG. 8, respectively). DSC data indicates Form B dehydrates at ˜132° C. […] Form B is slightly hygroscopic as evidenced by a weight change of ˜0.3% between 0% and 95% RH (FIG. 9), (data collection was programmed from 95% RH-0% RH-95% RH at a step size of 10% RH at 25° C.).

[2] = Solubility in Simulated Gastric Fluid (SGF) at 37° C.; format: physicochemical; settings: for Resulting Solid: XRPD; for Solubility: calculated using free base content
Protocol: To study if Form A and Form B would perform differently in stomach, the solubilities of Form A and Form B were measured in Simulated Gastric Fluid (SGF, see below for SGF preparation) at 37° C. […] The remaining solids after each time point were subject to XRPD analysis. […] Weigh appropriate amount of hydrochloride (HCl) and sodium chloride (NaCl) into a 1-L flask followed by addition of 1-L deionized water. The mixture was stirred until all solids are dissolved. Check pH value with a pH-meter and adjust the pH to 1.8 with HCl (1N) or NaOH (1N).

SMILES: CC(C)N(CC1O[C@@H](n2cnc3c(N)ncnc32)[C@H](O)[C@@H]1O)C1CC(CCc2nc3cc(C(C)(C)C)ccc3[nH]2)C1 (stereo partly drawn) [Form A, (2R,3R,4S,5R)-2-(6-amino-9H-purin-9-yl)-5-((((1r,3S)-3-(2-(5-(tert-butyl)-1H-benzo[d]imidazol-2-yl)ethyl)cyclobutyl)(isopropyl)amino)methyl)tetrahydrofuran-3,4-diol hydrate]
- water adsorption measured by dynamic vapor sorption (DVS) [1]: ~5.8 wt %
- Final pH [2]: 5.1
- time of conversion of Form A to Form B in SGF [2]: ≤ 15 min
- Resulting Solid ([2]; 15 min): Type B
- Solubility ([2]; 15 min): 5400 µg/mL
- Resulting Solid ([2]; 30 min): Type B
- Solubility ([2]; 30 min): 5500 µg/mL
- Resulting Solid ([2]; 60 min): Type B
- Solubility ([2]; 60 min): 5300 µg/mL
